Like-named read-outs stand apart in the source and are kept apart here.
Tests used:
[1] = biological target: Galanin GAL2 (h) (Homo sapiens (Human), UniProt O43603); assay: Off-target screen, radioligand displacement at 10 μM; conditions: read-out: binding at 10 μM
[2] = biological target: Muscarinic M1 (h) (Homo sapiens (Human), UniProt P11229); assay: as above; assay type: binding; conditions: antagonist radioligand
[3] = biological target: Muscarinic M4 (h) (Homo sapiens (Human), UniProt P08173); assay: as above; assay type: binding; conditions: antagonist radioligand
Sequence of Muscarinic M4 (h) (P08173 whole entry, looked up): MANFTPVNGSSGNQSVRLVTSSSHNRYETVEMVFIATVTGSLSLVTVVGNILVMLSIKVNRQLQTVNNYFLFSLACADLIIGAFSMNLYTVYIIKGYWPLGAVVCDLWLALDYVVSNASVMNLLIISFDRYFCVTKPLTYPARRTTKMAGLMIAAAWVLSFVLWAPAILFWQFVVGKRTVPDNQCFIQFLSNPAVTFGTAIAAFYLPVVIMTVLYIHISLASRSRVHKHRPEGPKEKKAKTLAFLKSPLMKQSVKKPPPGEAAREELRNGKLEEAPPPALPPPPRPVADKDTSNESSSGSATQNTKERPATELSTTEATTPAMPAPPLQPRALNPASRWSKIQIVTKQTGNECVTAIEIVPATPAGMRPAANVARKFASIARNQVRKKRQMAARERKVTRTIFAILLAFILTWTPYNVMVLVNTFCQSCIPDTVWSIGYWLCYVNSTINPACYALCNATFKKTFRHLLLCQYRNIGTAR

[4] = test system: Chloride Cl— channel (GABA-gated) (rat cortex); assay: as above; assay type: binding
[5] = biological target: Angiotensin AT1 (h) (Homo sapiens (Human), UniProt P30556); assay: as above; conditions: read-out: binding at 10 μM
Sequence of Angiotensin AT1 (h) (P30556 whole entry, looked up): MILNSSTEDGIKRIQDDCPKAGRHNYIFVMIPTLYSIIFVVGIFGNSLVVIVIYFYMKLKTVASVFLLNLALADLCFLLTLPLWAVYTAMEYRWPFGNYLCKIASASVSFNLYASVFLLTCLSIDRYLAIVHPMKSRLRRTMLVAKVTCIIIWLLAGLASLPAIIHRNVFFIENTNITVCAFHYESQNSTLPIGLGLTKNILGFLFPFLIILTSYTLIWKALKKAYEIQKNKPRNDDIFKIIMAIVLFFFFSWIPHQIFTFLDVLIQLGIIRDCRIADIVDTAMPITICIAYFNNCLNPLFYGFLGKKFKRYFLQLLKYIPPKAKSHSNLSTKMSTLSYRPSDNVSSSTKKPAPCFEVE

[6] = biological target: 5-HT6 (h) (Homo sapiens (Human), UniProt P50406); assay: as above; assay type: binding; conditions: agonist radioligand
[7] = biological target: T1, human 5-HT2B receptor (Homo sapiens (Human), UniProt P41595); assay: 5-HT2B radioligand binding ([125I](±)DOI)
T1 sequence (P41595 whole entry, looked up): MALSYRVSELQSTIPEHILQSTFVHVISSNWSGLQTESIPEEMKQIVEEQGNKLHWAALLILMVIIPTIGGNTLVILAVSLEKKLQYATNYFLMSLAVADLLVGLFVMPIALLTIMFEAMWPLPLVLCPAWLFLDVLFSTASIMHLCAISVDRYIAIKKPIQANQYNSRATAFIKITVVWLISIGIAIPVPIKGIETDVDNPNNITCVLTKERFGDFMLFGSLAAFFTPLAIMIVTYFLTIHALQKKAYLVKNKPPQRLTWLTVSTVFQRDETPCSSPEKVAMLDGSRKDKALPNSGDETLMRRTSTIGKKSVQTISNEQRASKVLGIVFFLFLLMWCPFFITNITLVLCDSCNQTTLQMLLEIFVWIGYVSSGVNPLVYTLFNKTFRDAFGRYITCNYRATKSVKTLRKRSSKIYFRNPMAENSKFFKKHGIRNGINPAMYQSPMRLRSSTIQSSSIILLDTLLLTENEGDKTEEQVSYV
Description: In another series of 5-HT1A,2A,2B radioligand competition binding assays, the conditions were as follows: For 5-HT1A assays, cell membrane homogenates (˜30 μg protein) derived from HEK-293 cells expressing human 5-HT1ARs were incubated with 0.5 nM [^3H]8-hydroxy-2-(di-n-propylamino)tetralin ([^3H]8-OH-DPAT) for 60 min at room temperature in the presence or absence of the test article. Non-specific binding was determined in the presence of 10 μM 8-OH-DPAT. Samples were then analyzed as described above, with only immaterial differences. […] Samples were then analyzed as described above.

[8] = biological target: PAC1 (Pituitary adenylate cyclase-activating polypeptide, PACAP) (h) (Homo sapiens (Human), UniProt P41586); assay: Off-target screen, radioligand displacement at 10 μM; conditions: read-out: binding at 10 μM
Sequence of PAC1 (Pituitary adenylate cyclase-activating polypeptide, PACAP) (h) (P41586 whole entry, looked up): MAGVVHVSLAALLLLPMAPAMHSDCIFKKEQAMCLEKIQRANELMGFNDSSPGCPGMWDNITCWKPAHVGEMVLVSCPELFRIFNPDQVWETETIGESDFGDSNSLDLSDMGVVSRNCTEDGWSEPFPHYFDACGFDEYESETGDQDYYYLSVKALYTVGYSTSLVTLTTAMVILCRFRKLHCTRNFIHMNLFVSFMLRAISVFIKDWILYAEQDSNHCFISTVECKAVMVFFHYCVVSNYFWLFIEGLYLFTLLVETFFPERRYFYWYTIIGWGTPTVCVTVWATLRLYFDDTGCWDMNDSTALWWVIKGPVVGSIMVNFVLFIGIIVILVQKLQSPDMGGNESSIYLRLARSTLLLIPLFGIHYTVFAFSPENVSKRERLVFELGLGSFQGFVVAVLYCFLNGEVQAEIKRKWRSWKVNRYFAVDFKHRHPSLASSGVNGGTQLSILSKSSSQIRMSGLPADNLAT

[9] = test system: P2Y (ATP) (rat cortex); assay: as above; assay type: binding
[10] = biological target: D4.4 (h) (Homo sapiens (Human), UniProt P21917); assay: as above; conditions: read-out: binding at 10 μM
Sequence of D4.4 (h) (P21917 whole entry, looked up): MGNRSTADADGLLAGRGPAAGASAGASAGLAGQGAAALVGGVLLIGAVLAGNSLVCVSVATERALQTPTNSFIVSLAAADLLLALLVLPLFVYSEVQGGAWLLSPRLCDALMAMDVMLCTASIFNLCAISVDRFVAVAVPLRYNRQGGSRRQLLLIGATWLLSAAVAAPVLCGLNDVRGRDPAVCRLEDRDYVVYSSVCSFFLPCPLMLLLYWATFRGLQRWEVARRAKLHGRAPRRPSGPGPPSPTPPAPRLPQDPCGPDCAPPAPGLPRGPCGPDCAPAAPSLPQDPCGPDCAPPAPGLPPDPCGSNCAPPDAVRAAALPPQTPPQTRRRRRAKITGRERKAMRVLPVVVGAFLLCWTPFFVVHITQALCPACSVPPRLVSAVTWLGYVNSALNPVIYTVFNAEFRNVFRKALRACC

[11] = biological target: Muscarinic M3 (h) (Homo sapiens (Human), UniProt P20309); assay: as above; assay type: binding; conditions: antagonist radioligand
[12] = biological target: Adrenergic β2 (h) (Homo sapiens (Human), UniProt P07550); assay: as above; assay type: binding; conditions: antagonist radioligand
[13] = biological target: Melanocortin MC4 (h) (Homo sapiens (Human), UniProt P32245); assay: as above; conditions: read-out: binding at 10 μM
[14] = biological target: Histamine H2 (h) (Homo sapiens (Human), UniProt P25021); assay: as above; conditions: read-out: binding at 10 μM
Sequence of Histamine H2 (h) (P25021 whole entry, looked up): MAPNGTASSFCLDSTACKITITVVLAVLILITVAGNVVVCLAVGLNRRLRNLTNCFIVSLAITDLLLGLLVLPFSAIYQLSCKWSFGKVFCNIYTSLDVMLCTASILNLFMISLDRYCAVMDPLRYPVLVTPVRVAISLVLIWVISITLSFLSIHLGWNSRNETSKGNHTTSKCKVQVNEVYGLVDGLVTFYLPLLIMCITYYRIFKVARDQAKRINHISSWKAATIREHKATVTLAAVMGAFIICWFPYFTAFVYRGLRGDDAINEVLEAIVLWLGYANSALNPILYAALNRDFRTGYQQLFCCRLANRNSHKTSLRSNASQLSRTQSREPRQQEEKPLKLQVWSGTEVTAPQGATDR

[15] = biological target: 5-HT transporter (h) (Homo sapiens (Human), UniProt P31645); assay: as above; assay type: binding
[16] = test system: Calcium SKCa channel (rat cortex); assay: as above; assay type: binding
[17] = test system: BZD (central) (rat cortex); assay: as above; assay type: binding
[18] = biological target: Angiotensin AT2 (h) (Homo sapiens (Human), UniProt P50052); assay: as above; conditions: read-out: binding at 10 μM
Sequence of Angiotensin AT2 (h) (P50052 whole entry, looked up): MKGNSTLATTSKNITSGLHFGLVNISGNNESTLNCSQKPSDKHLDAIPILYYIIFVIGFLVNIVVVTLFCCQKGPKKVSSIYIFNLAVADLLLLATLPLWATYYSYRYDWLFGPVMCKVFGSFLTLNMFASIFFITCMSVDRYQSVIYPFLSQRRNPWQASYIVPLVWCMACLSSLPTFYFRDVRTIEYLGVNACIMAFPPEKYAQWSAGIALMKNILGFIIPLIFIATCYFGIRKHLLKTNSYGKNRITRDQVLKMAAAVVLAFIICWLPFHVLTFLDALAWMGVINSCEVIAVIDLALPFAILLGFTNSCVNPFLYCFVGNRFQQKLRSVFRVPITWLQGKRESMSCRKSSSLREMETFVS

[19] = biological target: Prostacyclin IP (PGI2) (h) (Homo sapiens (Human), UniProt P43119); assay: as above; conditions: read-out: binding at 10 μM
Sequence of Prostacyclin IP (PGI2) (h) (P43119 whole entry, looked up): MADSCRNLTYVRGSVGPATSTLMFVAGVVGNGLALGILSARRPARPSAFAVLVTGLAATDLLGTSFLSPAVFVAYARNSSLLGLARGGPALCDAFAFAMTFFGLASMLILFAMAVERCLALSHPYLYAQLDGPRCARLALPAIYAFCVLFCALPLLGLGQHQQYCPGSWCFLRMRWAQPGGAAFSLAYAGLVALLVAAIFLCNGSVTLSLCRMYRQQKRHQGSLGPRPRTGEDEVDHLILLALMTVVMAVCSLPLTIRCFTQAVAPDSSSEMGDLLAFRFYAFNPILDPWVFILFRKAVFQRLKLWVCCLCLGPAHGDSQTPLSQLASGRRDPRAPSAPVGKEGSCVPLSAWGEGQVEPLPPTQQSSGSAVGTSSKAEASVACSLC

[20] = test system: Somatostatin SST (non-selective) (m); assay: as above; assay type: binding, mouse
[21] = biological target: T1, human 5-HT2B receptor; assay: 5-HT2B functional assay, IP1 (IPOne); assay type: cell-based; conditions: for Emax: IP1 assay, relative to 5-HT
[22] = biological target: Adenosine A1 (h) (Homo sapiens (Human), UniProt P30542); assay: Off-target screen, radioligand displacement at 10 μM; conditions: read-out: binding at 10 μM
[23] = biological target: Tachykinin NK2 (h) (Homo sapiens (Human), UniProt P21452); assay: as above; conditions: read-out: binding at 10 μM
[24] = biological target: Dopamine D1 (h) (Homo sapiens (Human), UniProt P21728); assay: as above; assay type: binding
Sequence of Dopamine D1 (h) (P21728 whole entry, looked up): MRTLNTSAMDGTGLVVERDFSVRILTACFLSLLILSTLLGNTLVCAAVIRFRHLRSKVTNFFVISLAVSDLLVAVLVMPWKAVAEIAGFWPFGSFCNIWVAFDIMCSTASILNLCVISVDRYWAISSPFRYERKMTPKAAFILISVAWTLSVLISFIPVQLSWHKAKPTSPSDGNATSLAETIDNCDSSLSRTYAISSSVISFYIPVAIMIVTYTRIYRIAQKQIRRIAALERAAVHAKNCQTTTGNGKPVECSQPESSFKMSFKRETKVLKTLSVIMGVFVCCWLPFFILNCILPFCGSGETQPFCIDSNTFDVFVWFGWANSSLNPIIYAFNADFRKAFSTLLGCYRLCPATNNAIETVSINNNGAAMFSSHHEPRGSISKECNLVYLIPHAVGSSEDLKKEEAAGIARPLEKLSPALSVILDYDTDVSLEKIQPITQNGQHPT

[25] = biological target: Vasopressin V1a (h) (Homo sapiens (Human), UniProt P37288); assay: as above; conditions: read-out: binding at 10 μM
[26] = biological target: μ-opioid (h) (Homo sapiens (Human), UniProt P35372); assay: as above; assay type: binding
[27] = biological target: 5-HT1B (h) (Homo sapiens (Human), UniProt P28222); assay: as above; assay type: binding; conditions: antagonist radioligand
Sequence of 5-HT1B (h) (P28222 whole entry, looked up): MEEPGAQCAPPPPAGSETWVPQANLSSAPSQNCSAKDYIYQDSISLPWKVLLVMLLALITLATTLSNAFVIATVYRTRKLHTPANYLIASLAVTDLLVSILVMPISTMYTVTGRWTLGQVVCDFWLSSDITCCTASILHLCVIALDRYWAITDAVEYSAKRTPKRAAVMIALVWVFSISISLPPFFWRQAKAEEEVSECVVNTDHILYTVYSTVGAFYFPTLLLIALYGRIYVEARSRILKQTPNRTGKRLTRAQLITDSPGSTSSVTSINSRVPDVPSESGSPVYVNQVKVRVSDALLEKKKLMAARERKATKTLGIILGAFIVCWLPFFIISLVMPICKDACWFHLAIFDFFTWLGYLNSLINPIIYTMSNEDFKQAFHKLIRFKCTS

[28] = biological target: Galanin GAL1 (h) (Homo sapiens (Human), UniProt P47211); assay: as above; conditions: read-out: binding at 10 μM
Sequence of Galanin GAL1 (h) (P47211 whole entry, looked up): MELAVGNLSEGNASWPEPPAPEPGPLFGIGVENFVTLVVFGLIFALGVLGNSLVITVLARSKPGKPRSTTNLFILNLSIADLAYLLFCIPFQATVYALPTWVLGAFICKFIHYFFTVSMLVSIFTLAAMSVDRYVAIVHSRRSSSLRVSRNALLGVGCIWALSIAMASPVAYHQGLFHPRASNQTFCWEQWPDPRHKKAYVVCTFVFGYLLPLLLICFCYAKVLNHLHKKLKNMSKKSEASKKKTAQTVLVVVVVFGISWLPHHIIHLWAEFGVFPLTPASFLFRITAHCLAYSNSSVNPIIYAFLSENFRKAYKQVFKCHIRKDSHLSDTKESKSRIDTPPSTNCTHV

[29] = antagonist radioligand, read-out: inhibition at 10 μM

Sequence of Galanin GAL2 (h) (O43603 whole entry, looked up): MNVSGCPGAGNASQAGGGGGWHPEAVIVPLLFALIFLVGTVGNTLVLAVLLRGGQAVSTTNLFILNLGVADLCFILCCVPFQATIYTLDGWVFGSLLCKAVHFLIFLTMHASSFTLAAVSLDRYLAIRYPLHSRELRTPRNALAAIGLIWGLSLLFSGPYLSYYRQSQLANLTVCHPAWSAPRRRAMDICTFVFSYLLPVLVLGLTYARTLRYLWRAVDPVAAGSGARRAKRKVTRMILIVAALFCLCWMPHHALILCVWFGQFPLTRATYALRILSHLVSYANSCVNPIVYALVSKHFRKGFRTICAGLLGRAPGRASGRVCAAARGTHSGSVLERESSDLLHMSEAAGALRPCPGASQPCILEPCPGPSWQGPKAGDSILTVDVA

Row | SMILES | inhibition at 10 µM [1] [%] | inhibition at 10 µM [2] [%] | inhibition at 10 µM [3] [%] | Decreased binding [4] | inhibition at 10 µM [5] [%] | inhibition at 10 µM [6] [%] | inhibition at 10 µM [8] [%] | binding at 10 μM [9] | inhibition at 10 µM [10] [%] | inhibition at 10 µM [11] [%] | inhibition at 10 µM [12] [%] | inhibition at 10 µM [13] [%] | inhibition at 10 µM [14] [%] | binding at 10 μM [16] | binding at 10 μM [17] | inhibition at 10 µM [18] [%] | inhibition at 10 µM [19] [%] | binding at 10 μM [20] | EC50 [21] [µM] | Emax [21] [%] | further results
1 | COc1cc(SC(F)(F)F)c(OC)cc1CCN [Compound I-1, 2-(2,5-dimethoxy-4-((trifluoromethyl)thio)phenyl)ethan-1-amine] | < 50 | > 80 | > 80 | Decreased binding by ~48% | < 50 | > 80 | < 50 | NB (inhibited less than 50% of radioligand bound to them, and therefore it can be concluded they do not bind (“no binding,” NB)) | < 50 | 79 | 52.2 | < 50 | < 50 | NB (inhibited less than 50% of radioligand bound to them, and therefore it can be concluded they do not bind (“no binding,” NB)) | NB (inhibited less than 50% of radioligand bound to them, and therefore it can be concluded they do not bind (“no binding,” NB)) | < 50 | < 50 | NB (inhibited less than 50% of radioligand bound to them, and therefore it can be concluded they do not bind (“no binding,” NB)) | 0.088 | ~84 | inhibition at 10 µM [7]: > 80%; Ki ([7]; radioligand [125I](±)DOI, read-out: 5-HT2B, Ki): 0.0067 µM; inhibition at 10 µM ([15]; read-out: binding at 10 μM): < 50%; inhibition at 10 µM [22]: < 50%; inhibition at 10 µM [23]: < 50%; inhibition at 10 µM [24, 29]: 57%; inhibition at 10 µM [25]: < 50%; inhibition at 10 µM ([26]; read-out: binding at 10 μM): < 50%; inhibition at 10 µM [27]: > 80%; inhibition at 10 µM [28]: < 50%
2 | COc1cc(CC(C)N)c(OC)cc1I (racemic) [DOI, (±)-2,5-dimethoxy-4-iodoamphetamine, reference compound] | < 50 | 71.8 | 75.7 | Decreased binding by ~38% | < 50 | 64.4 | < 50 | NB (inhibited less than 50% of radioligand bound to them, and therefore it can be concluded they do not bind (“no binding,” NB)) | < 50 | 60.4 | ≥ 80 | < 50 | < 50 | NB (inhibited less than 50% of radioligand bound to them, and therefore it can be concluded they do not bind (“no binding,” NB)) | NB (inhibited less than 50% of radioligand bound to them, and therefore it can be concluded they do not bind (“no binding,” NB)) | < 50 | < 50 | NB (inhibited less than 50% of radioligand bound to them, and therefore it can be concluded they do not bind (“no binding,” NB)) | 0.016 | ~98 | Ki [7]: 0.0015 µM; inhibition at 10 µM [15, 29]: 76.2%; inhibition at 10 µM [22]: < 50%; inhibition at 10 µM [23]: < 50%; inhibition at 10 µM ([24]; read-out: binding at 10 μM): < 50%; inhibition at 10 µM [25]: < 50%; inhibition at 10 µM ([26]; agonist radioligand, read-out: inhibition at 10 μM): 65%; inhibition at 10 µM [27]: 52.7%; inhibition at 10 µM [28]: < 50%
